The source made the active and inactive calls. How the calls were made is not given here.
Biological target: G-protein coupled receptor 151 (Homo sapiens) (UniProt Q8TDV0)
Experiment: GPR151 activator potency, dose response, cell-based (AID 1508610)
Settings: cell-based GPR151 activation reporter

Sequence of G-protein coupled receptor 151 (Homo sapiens) (Q8TDV0 whole entry, looked up): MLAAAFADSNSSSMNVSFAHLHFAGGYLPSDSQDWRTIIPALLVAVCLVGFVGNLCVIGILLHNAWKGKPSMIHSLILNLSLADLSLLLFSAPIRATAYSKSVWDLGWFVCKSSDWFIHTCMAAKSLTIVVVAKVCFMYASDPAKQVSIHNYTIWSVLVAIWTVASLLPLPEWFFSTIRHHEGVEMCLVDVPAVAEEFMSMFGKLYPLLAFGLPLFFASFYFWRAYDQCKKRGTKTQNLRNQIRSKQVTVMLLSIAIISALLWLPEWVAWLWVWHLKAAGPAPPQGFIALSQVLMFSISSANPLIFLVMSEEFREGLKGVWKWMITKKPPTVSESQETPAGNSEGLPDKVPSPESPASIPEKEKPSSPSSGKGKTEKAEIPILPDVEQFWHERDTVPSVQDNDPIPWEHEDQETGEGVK

| SMILES | EC50 |
| --- | --- |
| Cc1ccc2cc(CN(CC3CCCO3)C(=O)C3CCC3)c3nnnn3c2c1 (stereo not given) | > 28 µM (inactive) |
| NC(=O)c1ccc(-c2ccc(N3CCOCC3)nc2)s1 | > 25.9 µM (inactive) |
| NC(=O)C1CCN(C(=O)c2ccc3nc(N4CCCCC4)sc3c2)CC1 | > 28 µM (inactive) |
| Cc1sc2ncnc(N3CCN(c4ccccn4)CC3)c2c1C | > 32.6 µM (inactive) |
| Cc1csc2ncc(C(=O)N3CCc4ccccc43)c(=O)n12 | > 28 µM (inactive) |
| COC(=O)c1c(NC(=O)/C=C\C(=O)O)sc(C)c1C | > 28 µM (inactive) |
| C/C(=N\NC(=O)Cn1nnc(-c2ccccc2)n1)c1nonc1C | > 28 µM (inactive) |
| Nc1cccc(-c2nc3ccc(N)cc3s2)c1 | > 36 µM (inactive) |
| O=C(O)CN1CCN(Cc2ccc(Cl)cc2)C1=O | > 28 µM (inactive) |
| O=C(c1cccs1)N1CCN=C1SCc1cccc([N+](=O)[O-])c1 | > 28 µM (inactive) |
| C=CCN1C(=O)CC(C(=O)OC)C12CCN(C1CCN(C(=O)OCC)CC1)CC2 (stereo not given) | > 28 µM (inactive) |
| O=C(Nc1ncc([N+](=O)[O-])s1)c1cccnc1 | > 31.4 µM (inactive) |
| CCN(CC)C(=O)c1cn(CCC#N)nc1-c1ccc(OC)c([N+](=O)[O-])c1 | > 28 µM (inactive) |
| CC(C)(C)NS(=O)(=O)c1ccc(NC(=O)COc2ccc(Br)cc2)cc1 | > 28 µM (inactive) |

Now from value to compound:

| EC50 | SMILES |
| --- | --- |
| > 28 µM (inactive) | COc1cccc(-c2nnc3n2N=C(c2cccc([N+](=O)[O-])c2)CS3)c1 |
| > 28 µM (inactive) | COc1cccc(NC(=O)n2ncc3c(C)cccc32)c1 |
| > 28.3 µM (inactive) | COc1cccc(-c2ccc(SCC(=O)Nc3cc(C)on3)nn2)c1 |
| > 25.7 µM (inactive) | CCCNC(=O)c1ccc2nc(-c3csc4ccccc34)sc2c1 |
| > 28 µM (inactive) | COc1cccc(-c2ccc(=O)n(CC(=O)Nc3ccc(Cl)c(C(F)(F)F)c3)n2)c1 |
| > 27.7 µM (inactive) | CN1CCN(c2ccc(-c3ccc(C(=O)NCCOc4ccccc4)s3)cc2)CC1 |
| > 28 µM (inactive) | C=CCOc1ccc(C(=O)N(Cc2nc(-c3ccc(OC)c(OC)c3)no2)C(C)C)cc1 |
| > 28 µM (inactive) | O=C(Nc1noc2ccccc12)c1c(F)cccc1F |
| > 35 µM (inactive) | COc1ccc(-c2nc3ccccc3[nH]2)cc1 |
| > 20.8 µM (inactive) | COc1ccc(NS(=O)(=O)c2cccc3c(S(=O)(=O)Nc4ccc(OC)cc4OC)cccc23)c(OC)c1 |
| > 16.9 µM (inactive) | COc1ccc(C(=O)Nc2cc(C(=O)NCc3ccc(F)cc3)ccc2N2CC3CC(C2)c2cccc(=O)n2C3)cc1 (stereo not given) |
| inactive | COc1ccc(C2C=C(c3ccc(Cl)cc3)Nc3nc(CCCO)nn32)cc1 (stereo not given) |
| > 23.4 µM (inactive) | COC(=O)c1c(NC(=O)c2cc(-c3ccc(CC(C)C)cc3)nc3ccccc23)sc(C)c1-c1ccccc1 |
| > 28 µM (inactive) | COC(=O)c1ccc(CN2CCN(Cc3ccc(OC)c(C)c3)C(CCO)C2)cc1 (stereo not given) |
| > 27.9 µM (inactive) | COc1ccc(-c2ccc(C(=O)NCCO)s2)cc1 |
| > 14.8 µM (inactive) | O=C(Nc1ccc(Oc2cccc(Oc3ccc(NC(=O)c4ccccc4F)cc3)c2)cc1)c1ccccc1F |

Reference: PubChem BioAssay AID1508610 (The Scripps Research Institute Molecular Screening Center, 2020)
